{"source": "paper PMC5651845", "about": "“A New Generation of Arachidonic Acid Analogues as Potential Neurological Agent Targeting Cytosolic Phospholipase A2” (Scientific Reports, 2017)", "test_system": "iNOS expression in BV-2 cells", "test": "iNOS protein expression (western blot) in LPS-stimulated BV-2 cells", "type": "cell-based, murine", "details": "2 μg/mL LPS, 14 h", "text": "It is well-established that reactive oxygen species (ROS) and nitric oxide (NO), produced during microglia activation, contribute to inflammatory response and cytotoxic damage to the surrounding neurons and neighbouring cells. Recent studies have shown that BV-2 microglial cell could serve as an in vitro model to mimic such neuroinflammatory states when stimulated with lipopolysaccharide (LPS)[49]. LPS activates BV-2 cells by triggering a cascade of inflammatory events which includes the production of NO. This event is characterized by the generation of the biomarker, inducible nitric oxide synthase (iNOS), as well as ROS. Chuang et al.[50] have also shown that cPLA2 is a major contributor in this pathway and inhibiting this enzyme reduces the production of the neurotoxic mediators and provide neuroprotective effects. Therefore to investigate the ability of 2i in inhibiting cPLA2 in a neuroinflammatory model, BV-2 cells were treated with LPS (2 μg/mL), incubated for different time points, collected and lysed for protein extraction. […] The cPLA2 level was also determined and found to be largely constant throughout the entire activation process with a slight drop at the 24 h timepoint (Fig. 3F). Next, 2i (1, 10 and 20 μM) were incubated together with LPS in the BV-2 cells for 14 h (Fig. 4A,B). […]"}
{"smiles": "CCCCC/C=C\\C/C=C\\C/C=C\\C/C=C\\CCCCC(=O)Nc1cccc(C(=O)O)c1", "note": "[2i]", "values": [{"measurement": "reduction of LPS-induced iNOS expression", "setting": "20 µM", "value": 50, "unit": "%"}, {"measurement": "iNOS level, concentration dependence", "setting": "1–20 μM", "value": "dose-dependent decrease in the iNOS level"}]}
